The subject of this assay is hPSC-CMs. The assay is described as follows: Immunocytochemistry, imaging and morphological analysis (cell size, circularity index). Type of assay: cell-based, human. The procedure: Cells were fixed in 4% paraformaldehyde for 10 min followed by PBS wash. The fixed cells were blocked with 1.5% normal goat serum for 1 hour at room temperature and incubated overnight at 4° C. with primary antibodies. Mouse anti-α-actinin (Sigma) was used. The samples were rinsed with PBS and incubated with a secondary antibody. Samples subjected to F-actin staining were incubated with TRITC-labeled phalloidin (Sigma) for 5 min at room temperature. Nuclei were stained with Hoechst 33342. Fluorescent images were acquired using a Zeiss AxioCam™ mounted on a Zeiss AxioObserver Microscope™, and confocal images were processed and quantified using NIS Elements. Each cell was analyzed for cell size and circularity index.

Where the note is “AICAR-treated hPSC-CMs, control 0.51±0.01”, `NC(=O)c1ncn([C@@H]2O[C@H](CO)[C@@H](O)[C@H]2O)c1N` [AICAR, 5-amino-4-imidazolecarboxamide riboside-1-β-D-ribofuranoside] returned a circularity index of 0.40±0.02. Where the note is “AICAR-treated hiPSC-CMs, control 1141±40”, this compound showed a cell area of 2321±120 μm^2.

The record behind these values is patent US20220152117A1, “METHODS OF PROMOTING CELLULAR MATURATION WITH AMPK ACTIVATORS” (UNIVERSITY OF WASHINGTON, priority 2019, published 2022).
